Laboratory results published in patent US12673052B2, “Combinations for the treatment of cancer” (Exelixis, Inc., priority 2020, dated 2026).

Columns and labels:
[1] = Liver microsomal stability assay; assay type: in vitro ADME, mouse; settings: liver microsomes
Method: (§1) In the liver microsomal stability assay, CLint was 0.601 mL/min/g liver in mouse, 0.563 mL/min/g liver in rat, 0.315 mL/min/g liver in dog, 0.734 mL/min/g liver in monkey, and 0.639 mL/min/g liver in human. In the hepatocyte stability assay, Compound 1 CLint was 0.373 mL/min/g liver in mouse, 0.285 mL/min/g liver in rat, 1.08 mL/min/g liver in dog, 0.533 mL/min/g liver in monkey, and 0.317 mL/min/g liver in human.

[2] = molecular target: AXL (Homo sapiens, UniProt P30530); assay: RTK autophosphorylation ELISA, A-172 cells stimulated with Gas6; assay type: cell-based; parameters: cell lines (PC-3, HUVEC, and A-172) stimulated with ligands to their respective receptors to induce autophosphorylation (MET, VEGFR2, and AXL); endogenous in cells; host or cells: A-172; settings: ligand Gas6, read-out: Cellular IC50
Method: (§2) The activity of Compound 1 was evaluated in cell-based assays that assessed the mechanistic effects of the compound in tumor and normal cells. Consistent with the biochemical data, Compound 1 is a potent inhibitor of cellular RTKs as assessed by analysis of receptor autophosphorylation as measured by enzyme-linked immunosorbent assay. Assays were performed using cell lines (PC-3, HUVEC, and A-172) stimulated with ligands to their respective receptors to induce autophosphorylation (MET, VEGFR2, and AXL) or a cell line (293A) transfected with an expression vector encoding the receptor of interest (MER). Inhibition of endogenous phosphorylated MET by Compound 1 in Hs 746T gastric carcinoma cells was also investigated due to the presence of the skip-splice mutation of exon 14 in the MET gene. This MET exon 14 alteration leads to increased MET stability and oncogenic activation, including constitutive MET phosphorylation. Also this mutation is known to occur in 3% of lung adenocarcinoma patients and to be sensitive to MET-targeted therapies (Frampton et al 2015).

[3] = Liver microsomal stability assay; assay type: in vitro ADME, dog; settings: liver microsomes
Method: as §1

[4] = tested on: NCI-H441; assay: Tumor growth inhibition in xenograft model; assay type: in vivo, athymic nude mice
Method: Three human tumor cell lines, NCI-H441, MDA-MB-231, and SNU-5, were selected for use in tumor xenograft studies using athymic nude, NSG and CB.17 SCID mice, respectively. Pharmacodynamic modulation of MET phosphorylation was also measured in the NCI-H441 and SNU-5 xenografts. Tumor-bearing mice were orally dosed once-daily for 14 days (qd×14), and the tumors were resected and processed for MET phosphorylation analysis by Western blot. […]

[5] = tested on: CYP3A4; assay: Cytochrome P450 induction (mRNA levels) in fresh primary human hepatocytes; assay type: in vitro ADME
[6] = Hepatocyte stability assay; assay type: in vitro ADME, rat; settings: hepatocytes
Method: The mean plasma t1/2, z values were approximately 9 hours in rats and 4 hours in dogs. Interspecies scaling based on body weight to predict PK parameters in humans could not be performed because dogs (larger species) cleared Compound 1 faster than rats (smaller species). Therefore, the human PK was projected based on one species (rat). […] This apparent clearance value (CL/F) was used to predict steady-state exposure (AUC and average plasma concentration [Cavg]) in humans for the proposed first-in-human (FIH) starting dose for Study Compound 1-001.
as §1

[7] = molecular target: CYP2C8 (Homo sapiens, UniProt P10632); assay: Cytochrome P450 inhibition in vitro; assay type: in vitro ADME
Method: (§3) Plasma PK of Compound 1 was characterized in rats and beagle dogs. Toxicokinetic (TK) evaluations of oral Compound 1 were evaluated in repeat-dose studies in rats and dogs. Plasma protein binding was determined in mouse, rat, dog, monkey, and human plasma in vitro. Biotransformation and metabolite profiling of Compound 1 were investigated in vitro using mouse, rat, dog, monkey, and human liver microsomal fractions and hepatocytes and in vivo in rats and dogs. P-glycoprotein (P-gp) and breast cancer resistance protein (BCRP) transporter interaction studies, in vitro experiments evaluating cytochrome P450 (CYP) induction and inhibition by Compound 1, and CYP and glucuronosyltransferase (UGT) substrate specificity studies of Compound 1 were also performed.

[8] = molecular target: CYP2C9 (Homo sapiens, UniProt P11712); assay: Cytochrome P450 inhibition in vitro; assay type: in vitro ADME
Method: as §3

[9] = molecular target: CYP1A2 (Homo sapiens, UniProt P05177); assay: Cytochrome P450 inhibition in vitro; assay type: in vitro ADME; settings: low CYP inhibition potential
Method: as §3

[10] = molecular target: CYP2D6 (Homo sapiens, UniProt P10635); assay: Cytochrome P450 inhibition in vitro; assay type: in vitro ADME; settings: low CYP inhibition potential
Method: as §3

[11] = molecular target: CYP2C19 (Homo sapiens, UniProt P33261); assay: Cytochrome P450 inhibition in vitro; assay type: in vitro ADME
Method: as §3

[12] = molecular target: CYP 2B6 (Homo sapiens, UniProt P20813); assay: Cytochrome P450 inhibition in vitro; assay type: in vitro ADME; settings: low CYP inhibition potential
Method: as §3

[13] = molecular target: CYP3A4 (Homo sapiens, UniProt P08684); assay: Cytochrome P450 inhibition in vitro; assay type: in vitro ADME
Method: as §3

[14] = molecular target: VEGFR2 (Homo sapiens, UniProt P35968); assay: RTK autophosphorylation ELISA, HUVEC stimulated with VEGF165; assay type: cell-based; parameters: cell lines (PC-3, HUVEC, and A-172) stimulated with ligands to their respective receptors to induce autophosphorylation (MET, VEGFR2, and AXL); endogenous in cells; host or cells: HUVEC; settings: VEGFR2, ligand VEGF165; read-out: Cellular IC50
Method: as §2

[15] = tested on: CYP2C9; assay: Cytochrome P450 induction (mRNA levels) in fresh primary human hepatocytes; assay type: in vitro ADME
[16] = tested on: CYP1A2; assay: as above; assay type: in vitro ADME
[17] = human, fresh primary human hepatocytes, mRNA induction, read-out: half-maximal effective concentration (EC50)

Chain of CYP3A4 (Homo sapiens, UniProt P08684) (P08684 whole entry): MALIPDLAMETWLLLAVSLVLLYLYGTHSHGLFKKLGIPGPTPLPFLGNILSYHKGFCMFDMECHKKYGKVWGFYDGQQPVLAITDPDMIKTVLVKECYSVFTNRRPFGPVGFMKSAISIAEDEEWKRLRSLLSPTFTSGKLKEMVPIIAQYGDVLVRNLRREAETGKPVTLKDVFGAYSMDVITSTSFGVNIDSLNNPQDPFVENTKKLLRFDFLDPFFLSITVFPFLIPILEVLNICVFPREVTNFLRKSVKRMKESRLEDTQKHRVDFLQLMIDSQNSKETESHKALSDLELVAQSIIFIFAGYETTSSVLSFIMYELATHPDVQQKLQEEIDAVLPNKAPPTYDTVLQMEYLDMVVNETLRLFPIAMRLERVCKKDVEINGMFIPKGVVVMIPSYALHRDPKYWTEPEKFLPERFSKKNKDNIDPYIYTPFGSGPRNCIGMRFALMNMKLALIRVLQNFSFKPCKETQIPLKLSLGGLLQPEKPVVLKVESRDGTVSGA
Chain of CYP2D6 (P10635 whole entry): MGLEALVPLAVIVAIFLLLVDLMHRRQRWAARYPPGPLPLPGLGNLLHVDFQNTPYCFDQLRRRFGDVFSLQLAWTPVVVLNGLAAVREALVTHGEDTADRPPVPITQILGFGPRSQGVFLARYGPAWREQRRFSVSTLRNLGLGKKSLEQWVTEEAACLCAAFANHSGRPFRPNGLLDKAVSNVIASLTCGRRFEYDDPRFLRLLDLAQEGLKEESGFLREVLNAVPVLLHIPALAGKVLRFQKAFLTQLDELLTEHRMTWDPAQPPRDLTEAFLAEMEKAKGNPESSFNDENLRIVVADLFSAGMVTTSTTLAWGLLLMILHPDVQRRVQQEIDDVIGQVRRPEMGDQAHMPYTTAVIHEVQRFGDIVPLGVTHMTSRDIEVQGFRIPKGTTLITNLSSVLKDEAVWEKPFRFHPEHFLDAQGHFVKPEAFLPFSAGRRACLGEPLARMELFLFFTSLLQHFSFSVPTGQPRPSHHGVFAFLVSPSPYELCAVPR
Chain of VEGFR2 (P35968 20-1356): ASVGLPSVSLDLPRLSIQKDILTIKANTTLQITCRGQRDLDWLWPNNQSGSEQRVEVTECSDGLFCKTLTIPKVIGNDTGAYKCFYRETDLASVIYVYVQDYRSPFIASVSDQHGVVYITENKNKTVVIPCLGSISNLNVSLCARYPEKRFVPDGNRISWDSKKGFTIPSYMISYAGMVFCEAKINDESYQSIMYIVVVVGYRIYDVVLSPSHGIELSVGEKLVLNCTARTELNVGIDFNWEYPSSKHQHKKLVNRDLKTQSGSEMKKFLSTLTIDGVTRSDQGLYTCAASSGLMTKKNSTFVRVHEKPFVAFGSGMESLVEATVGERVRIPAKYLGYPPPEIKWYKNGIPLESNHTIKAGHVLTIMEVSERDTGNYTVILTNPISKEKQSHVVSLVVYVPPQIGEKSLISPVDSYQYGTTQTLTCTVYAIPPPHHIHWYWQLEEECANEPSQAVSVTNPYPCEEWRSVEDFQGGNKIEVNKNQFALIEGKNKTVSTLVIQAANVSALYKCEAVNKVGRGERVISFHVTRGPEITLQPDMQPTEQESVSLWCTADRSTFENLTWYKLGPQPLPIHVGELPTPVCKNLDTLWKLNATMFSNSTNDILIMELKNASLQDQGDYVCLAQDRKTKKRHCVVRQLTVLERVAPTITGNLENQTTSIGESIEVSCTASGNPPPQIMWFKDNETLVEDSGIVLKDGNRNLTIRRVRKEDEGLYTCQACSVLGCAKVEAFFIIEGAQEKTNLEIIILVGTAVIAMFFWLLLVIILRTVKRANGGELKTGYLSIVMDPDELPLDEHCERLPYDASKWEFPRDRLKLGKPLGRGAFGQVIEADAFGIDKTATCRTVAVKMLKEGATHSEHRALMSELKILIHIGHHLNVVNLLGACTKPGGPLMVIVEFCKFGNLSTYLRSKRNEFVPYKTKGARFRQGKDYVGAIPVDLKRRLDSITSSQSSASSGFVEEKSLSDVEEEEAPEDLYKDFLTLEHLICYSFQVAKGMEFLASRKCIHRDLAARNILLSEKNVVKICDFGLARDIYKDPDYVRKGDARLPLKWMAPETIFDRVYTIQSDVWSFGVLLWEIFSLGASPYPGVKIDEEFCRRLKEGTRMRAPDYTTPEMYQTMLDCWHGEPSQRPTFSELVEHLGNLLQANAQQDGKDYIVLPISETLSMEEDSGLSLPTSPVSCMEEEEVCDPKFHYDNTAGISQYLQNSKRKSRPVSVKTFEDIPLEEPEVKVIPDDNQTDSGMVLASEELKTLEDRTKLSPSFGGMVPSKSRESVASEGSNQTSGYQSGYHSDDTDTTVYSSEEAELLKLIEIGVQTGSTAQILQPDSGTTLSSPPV
Chain of CYP 2B6 (P20813 whole entry): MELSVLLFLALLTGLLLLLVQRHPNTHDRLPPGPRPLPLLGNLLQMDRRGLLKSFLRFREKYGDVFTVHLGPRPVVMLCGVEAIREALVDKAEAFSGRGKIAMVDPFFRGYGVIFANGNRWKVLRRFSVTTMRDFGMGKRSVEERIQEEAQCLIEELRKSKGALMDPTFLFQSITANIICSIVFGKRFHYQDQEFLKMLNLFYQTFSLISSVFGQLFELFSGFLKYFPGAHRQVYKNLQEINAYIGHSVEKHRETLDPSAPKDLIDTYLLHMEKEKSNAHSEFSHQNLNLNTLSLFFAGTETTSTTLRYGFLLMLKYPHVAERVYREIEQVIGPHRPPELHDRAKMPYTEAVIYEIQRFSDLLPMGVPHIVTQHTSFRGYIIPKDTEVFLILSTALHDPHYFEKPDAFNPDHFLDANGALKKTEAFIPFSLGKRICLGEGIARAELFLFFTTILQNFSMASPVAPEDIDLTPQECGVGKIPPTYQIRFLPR
Chain of CYP2C19 (P33261 whole entry): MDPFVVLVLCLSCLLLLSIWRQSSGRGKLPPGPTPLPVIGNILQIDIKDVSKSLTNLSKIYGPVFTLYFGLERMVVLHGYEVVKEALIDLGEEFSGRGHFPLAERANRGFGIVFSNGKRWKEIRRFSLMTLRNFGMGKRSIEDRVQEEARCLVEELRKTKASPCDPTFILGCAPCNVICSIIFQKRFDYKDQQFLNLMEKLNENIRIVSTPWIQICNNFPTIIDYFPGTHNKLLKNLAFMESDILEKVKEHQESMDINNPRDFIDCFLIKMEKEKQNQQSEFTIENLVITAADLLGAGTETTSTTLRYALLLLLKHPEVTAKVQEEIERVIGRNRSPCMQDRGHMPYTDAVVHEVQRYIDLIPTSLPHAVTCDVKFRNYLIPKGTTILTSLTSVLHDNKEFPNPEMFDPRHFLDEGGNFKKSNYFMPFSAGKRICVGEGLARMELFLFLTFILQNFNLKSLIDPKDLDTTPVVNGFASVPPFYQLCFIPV
Chain of CYP2C8 (P10632 whole entry): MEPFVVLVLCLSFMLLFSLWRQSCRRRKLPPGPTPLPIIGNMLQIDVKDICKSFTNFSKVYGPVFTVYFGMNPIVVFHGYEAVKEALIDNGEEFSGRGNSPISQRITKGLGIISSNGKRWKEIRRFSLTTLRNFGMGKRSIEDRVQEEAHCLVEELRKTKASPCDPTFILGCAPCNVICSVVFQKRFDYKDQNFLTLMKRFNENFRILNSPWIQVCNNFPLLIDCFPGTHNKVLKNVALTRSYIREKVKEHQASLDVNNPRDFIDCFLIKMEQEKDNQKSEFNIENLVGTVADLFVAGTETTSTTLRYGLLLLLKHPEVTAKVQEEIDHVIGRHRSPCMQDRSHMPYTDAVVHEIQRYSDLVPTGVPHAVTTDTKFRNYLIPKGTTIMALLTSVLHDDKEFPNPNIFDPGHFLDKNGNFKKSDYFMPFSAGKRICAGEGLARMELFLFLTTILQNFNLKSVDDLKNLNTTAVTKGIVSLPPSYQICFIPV
Chain of CYP2C9 (Homo sapiens, UniProt P11712) (P11712 whole entry): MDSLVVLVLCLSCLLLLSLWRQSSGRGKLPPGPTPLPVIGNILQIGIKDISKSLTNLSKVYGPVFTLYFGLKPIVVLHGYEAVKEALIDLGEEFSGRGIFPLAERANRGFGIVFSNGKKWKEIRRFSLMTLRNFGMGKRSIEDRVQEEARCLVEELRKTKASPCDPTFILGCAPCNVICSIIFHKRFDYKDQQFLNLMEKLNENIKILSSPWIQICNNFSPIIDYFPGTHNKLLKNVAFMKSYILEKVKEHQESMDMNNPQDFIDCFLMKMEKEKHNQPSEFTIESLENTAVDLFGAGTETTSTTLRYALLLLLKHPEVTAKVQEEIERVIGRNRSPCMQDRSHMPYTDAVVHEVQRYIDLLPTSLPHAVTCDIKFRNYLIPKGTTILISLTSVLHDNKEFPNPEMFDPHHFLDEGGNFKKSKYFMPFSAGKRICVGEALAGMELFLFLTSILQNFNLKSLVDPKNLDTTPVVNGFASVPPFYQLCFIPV
Chain of CYP1A2 (Homo sapiens, UniProt P05177) (P05177 whole entry): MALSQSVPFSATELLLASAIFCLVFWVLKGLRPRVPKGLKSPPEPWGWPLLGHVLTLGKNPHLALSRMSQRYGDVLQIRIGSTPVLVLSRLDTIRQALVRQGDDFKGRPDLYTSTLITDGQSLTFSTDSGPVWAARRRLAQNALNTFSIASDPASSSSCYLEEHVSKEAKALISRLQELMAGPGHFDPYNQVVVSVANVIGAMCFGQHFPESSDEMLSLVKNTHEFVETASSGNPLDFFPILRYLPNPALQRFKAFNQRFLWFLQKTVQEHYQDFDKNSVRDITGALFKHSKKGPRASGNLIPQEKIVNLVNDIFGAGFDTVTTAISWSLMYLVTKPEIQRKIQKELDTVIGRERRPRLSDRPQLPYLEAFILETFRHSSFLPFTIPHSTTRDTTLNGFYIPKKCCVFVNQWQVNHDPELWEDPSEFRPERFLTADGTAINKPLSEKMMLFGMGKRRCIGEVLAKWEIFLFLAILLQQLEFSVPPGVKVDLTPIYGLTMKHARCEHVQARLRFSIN

With `CNC(=O)c1cc2c(Oc3ccc(NC(=O)C4(C(=O)Nc5ccc(F)cc5)CC4)cc3)ccnc2cc1OC` [Compound 1, 1-N′-(4-Fluorophenvl)-1-N-[4-[7-methoxy-6-(methylcarbamovl)quinolin-4-yl]oxyphenyl]cyclopropane-1,1-dicarboxamide] as the molecule, how does the CLint [1] read?
Its CLint is 0.601 mL/min/g liver.

What about the IC50 [2] of the same molecule?
Its IC50 is 3.4 nM.

What about the CLint [3] of the same molecule?
Its CLint is 0.315 mL/min/g liver.

What about the “TGI (%)” value ([4]; 3 mg/kg qd × 14 oral, p-value 0.0115) of the same molecule?
The value was 63.3%.

And the “TGI (%)” value ([4]; 10 mg/kg qd × 14 oral, p-value <0.0001)?
The value was “regression”.

What about the EC50 [5, 17] of the same molecule?
Its EC50 is 2980 nM.

And the “maximal induction effect (Emax)” value ([5]; mRNA, 0.1-100 μM)?
Its value is 24 fold.

And the CLint [6]?
The CLint was 0.285 mL/min/g liver.

What about the Ki [7] of the same molecule?
The Ki was 1270 nM.

And the Ki [8]?
The Ki was 7110 nM.

And the IC50 [9]?
Its IC50 is greater than 33000 nM.

And the IC50 [10]?
The IC50 was greater than 33000 nM.

And the Ki [11]?
Its Ki is 1360 nM.

And the IC50 [12]?
Its IC50 is greater than 33000 nM.

And the Ki [13]?
The Ki was 25200 nM.

What about the time-dependent inhibition ([13]; testosterone as probe substrate) of the same molecule?
Its time-dependent inhibition is “time-dependent inhibitor”.

And the IC50 [14]?
Its IC50 is 1.5 nM.

What about the EC50 [15, 17] of the same molecule?
Its EC50 is 1710 nM.

What about the “maximal induction effect (Emax)” value ([15]; mRNA, 0.1-100 μM) of the same molecule?
The value was 5 fold.

And the EC50 [16, 17]?
The EC50 was 930 nM.

And the “maximal induction effect (Emax)” value ([16]; mRNA, 0.1-100 μM)?
The value was 5 fold.
